The record followed here is PMC2893567 (Macromolecular bioscience, 2010).

In this test the target is cholera toxin B5 subunit (CT B5) (Vibrio cholerae serotype O1, UniProt P01556). The test can be described thus: biochemical. In kind it is binding.
Chain of cholera toxin B5 subunit (CT B5) (P01556 22-124 limits assumed): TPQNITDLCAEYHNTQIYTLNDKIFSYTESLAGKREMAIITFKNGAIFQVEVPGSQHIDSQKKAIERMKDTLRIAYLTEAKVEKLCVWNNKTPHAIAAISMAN

With `O=C[C@H](O)[C@@H](O)[C@@H](O)[C@H](O)CO` [Galactose], the Improvement over galactose is on record as 1. For the setting “IC50 (saccharide concentration)”, this compound came in with an IC50 of 30 to 45 mM.

On to “XGAGAGPSGAGAGPSGAGAGPSGAGAGPSGAGAGPXGGGG [35-RCG-2]”, for which the “Non-specific binding of unmodified peptide” value is “less than 20%”. With “XGAKAKPKGAKAKPKGAKAKPKGAKAKPKGAKAKPXGGGG [35-RCK-2]”, the “Non-specific binding of unmodified peptide” value was “less than 20%”.

As a reminder, the IC50 is the concentration at which inhibition is half-maximal.
